Read-outs that look alike come from different tables or passages of the source.

One assay concerns HSV-1 F. Briefly: anti-HSV screening test (cytopathogenic effect, fluorescein diacetate readout) in Vero cells, HSV-1 F. It is filed as cell-based. The following applies: read-out: IC50 [μM] HSV-1 F/Vero. On the procedure:
(§1) HSV (HSV-1 Walki, HSV-1F or HSV-2G) was cultivated on Vero cells (ATCC CCL-81) under the following conditions. The cells were grown in M199 medium (5% foetal calf serum, 2 mM glutamine, 100 IU/ml penicillin, 100 μg/ml streptomycin) in cell culture bottles at 37° C. and 5% CO2. The cells were split twice per week, in each case 1:4. For the infection, the medium was removed, the cells were washed with Hank's solution, detached using 0.05% trypsin, 0.02% EDTA (Seromed L2143) and incubated at a density of 4×10^5 cells per ml under the abovementioned conditions for 24 hours. The medium was then removed and the virus solution was added at an m.o.i. of <0.05 in a volume of 2 ml per 175 cm^2 of surface. The medium was incubated under the conditions mentioned for one hour and then made up to a volume of 50 ml per 175 cm^2 bottle. […] The virus was released by freezing (−80° C.) and thawing (37° C.) the cultures twice. Cell debris was removed by centrifugation (300 g, 10 min, 4° C.) and the supernatant was frozen down in aliquots at −80° C.
(§2) The anti-HSV action was determined in a screening test system in 96-well microtitre plates using various cell lines of neuronal, lymphoid and epithelial origin, such as, for example, Vero (kidney cell line of the green monkey), MEF (murine embryonal fibroblasts), HELF (human embryonal fibroblasts), NT2 (human neuronal cell line) or Jurkat (human lymphoid T-cell line).
(§3) The substances (50 mM), dissolved in DMSO (dimethyl sulphoxide), are examined on microtitre plates (for example 96-well MTP) in final concentrations of 250-0.5 μM (micromolar) in two replications (4 substances/plate). In the case of potent substances, the dilutions are continued for several plates up to 0.5 pM (picomolar). Also examined are toxic and cytostatic effects of the substances. After an appropriate dilution of the substances (1:2) on the microtitre plate in medium, a suspension of cells ([…] cells per well) such as, for example, of Vero cells in M199 (medium 199) with 5% foetal calf serum, 2 mM glutamine and optionally 100 IU/ml penicillin and 100 μg/ml streptomycin or of MEF cells in EMEM (Eagle's Minimum Essential Medium) with 10% foetal calf serum, 2 mM glutamine and optionally 100 IU/ml penicillin and 100 μg/ml streptomycin, or of HELF cells in EMEM with 10% foetal calf serum, 2 mM glutamine and optionally 100 IU/ml penicillin and 100 μg/ml streptomycin, or of NT2 and Jurkat cells in DMEM ([…] glucose plus pyridoxin) with 10% foetal calf serum, 2 mM glutamine, 1 mM sodium pyruvate, non-essential amino acids and optionally 100 IU/ml penicillin and 100 μg/ml streptomycin, is added to each well and the cells in the relevant wells are infected with an appropriate amount of virus (HSV-1 F or HSV-2 G having an m.o.i. (multiplicity of infection) of 0.0025 for HELF, Vero and MEF cells and an m.o.i. of 0.1 for NT2 and Jurkat cells). The plates are then incubated at 37° C. in a CO2 incubator (5% CO2) for several days. […] The plates are initially evaluated visually using a microscope and then analysed using a fluorescent dye. To this end, the cell supernatant of all wells of the MTP is aspirated and the wells are filled with 200 μl of PBS wash solution. The PBS is then aspirated and all the wells are filled with 200 μl of fluorescent dye solution (fluorescein diacetate, 10 μg/ml in PBS). After an incubation time of 30-90 min, the test plates are read in a fluorescence detector at an excitation wavelength of 485 nm and an emission wavelength of 538 nm.
Background: Damage to the host cells serves as the signal in cytopathic effect assays.

The next assay relates to HSV-2 G. In words: anti-HSV screening test (cytopathogenic effect, fluorescein diacetate readout) in Vero cells, HSV-2 G. The class given is cell-based. The following applies: read-out: IC50 [μM] HSV-2 G/Vero. Here is the method: as §1, §2, §3
The next assay has as its system HSV-1. Briefly: in-vivo action: survival of intranasally HSV-infected mice. Also noted: species or system BALB/cABom strain. Conditions: HSV-1, intranasal infection 5×10^4 Pfu, female BALB/cABom mice; treated 3 times per day for 5 days from 6 hours after infection; from survival curves. On the procedure: 6-week-old female mice, BALB/cABom strain were obtained from a commercial breeder (Bomholtgard Breeding and Research Centre Ltd.).
The animals were anaesthetized with diethyl ether (Merck) in a sealed glass vessel. 50 μl of a dilution of the virus stock (infection dose 5×10^4 Pfu) were introduced into the nose of the anaesthetized animals using an Eppendorf pipette. In 90-100% of the animals, this infection dose causes death by a generalized infection with prominent respiratory and central-nervous symptoms on average after 5 to 8 days.
6 hours after the infection, the animals were treated with doses of 0.1-100 mg/kg of body mass, 3 times per day, at 7 a.m., 2 p.m. and 7 p.m., for a period of 5 days. The substances were pre-dissolved in DMSO and resuspended in tylose/PBS (Hoechst) (final concentration 1.5% DMSO, 0.5% tylose in PBS).
After the last administration, the animals were monitored further and the time of death was determined.

The mark [1] stands for this setting: Human alphaherpesvirus 1, HSV-1 F, Vero cells, half-maximal fluorescence intensity with respect to the non-infected cell control.
[2] abbreviates: Human alphaherpesvirus 2, HSV-2 G, Vero cells, half-maximal fluorescence intensity with respect to the non-infected cell control.

With `Cc1nc(C(C)C(=O)Nc2ccc(-c3ccccc3)cc2)sc1S(N)(=O)=O` (centres unmarked) [Example 1, 2-[5-(Aminosulphonyl)-4-methyl-1,3-thiazol-2-yl]-N-(1,1′-biphenyl-4-yl)-propanamide], the IC50 with HSV-1 F (setting [1]) came to 0.05 µM; in the assay with HSV-2 G (setting [2]) it was 0.03 µM.
As for `Cc1nc(C(C)C(=O)Nc2ccc(-c3ccccn3)cc2)sc1S(N)(=O)=O` (centres unmarked) [Example 2, 2-[5-(Aminosulphonyl)-4-methyl-1,3-thiazol-2-yl]-N-[4-(2-pyridinyl)-phenyl]propanamide], the IC50 in the assay on HSV-1 F (setting [1]) amounted to 0.2 µM; in the assay on HSV-2 G (setting [2]) it was 0.4 µM.
With `Cc1nc(C(C)C(=O)Nc2ccc(-c3cc(F)ccc3F)cc2)sc1S(N)(=O)=O` (centres unmarked) [Example 3, 2-[5-(Aminosulphonyl)-4-methyl-1,3-thiazol-2-yl]-N-(2′,5′-difluoro-1,1′-biphenyl-4-yl)propanamide], the IC50 with HSV-1 F (Human alphaherpesvirus 1, Vero) was 0.05 µM; in the assay on HSV-2 G (Human alphaherpesvirus 2, Vero) it was 0.01 µM. For the same molecule, the “ED90 (90% of the animals survive at this dose)” value in the assay with HSV-1 is “about 3 mg/kg”.
As for `CCOc1ccc(NC(=O)C(C)c2nc(C)c(S(N)(=O)=O)s2)cc1` (centres unmarked) [Example 4, 2-[5-(Aminosulphonyl)-4-methyl-1,3-thiazol-2-yl]-N-(4-ethoxyphenyl)-propanamide], the IC50 in the assay on HSV-1 F (setting [1]) and in the assay with HSV-2 G (setting [2]) was 0.75 µM in each case.
Consider `CNS(=O)(=O)c1sc(C(C)C(=O)Nc2ccc(-c3ccccc3)cc2)nc1C` (centres unmarked) [Example 5, N-(1,1′-Biphenyl-4-yl)-2-{4-methyl-5-[(methylamino)sulphonyl]-1,3-thiazol-2-yl}propanamide], for which the values for the IC50 in the assay on HSV-1 F (setting [1]) and in the assay with HSV-2 G (setting [2]) were 0.1 µM and 0.06 µM, respectively.

Source of the values: patent US20020119995A1, “Inverse thiazolylamide derivatives” (priority 2000, published 2002).
